The test system of assay [1] is non-replicating cultures of M. tuberculosis H37Rv transformed with lux ABCDE. Nature of the assay: microbe, parasite or virus in culture. It counts as cell-based, Mycobacterium tuberculosis. The settings on record: for MIC90: ≥90% reduction in luminescence, read-out: MIC90 LORA; for MIC90 LORA/MABA: ratio of LORA MIC90 to MABA MIC90.
Assay [2] relates to M. tuberculosis transformed with luxABCDE. The assay is described as follows: microbe, parasite or virus in culture. It counts as cell-based, Mycobacterium tuberculosis.
In assay [3] the target is β-S450L (RIF^R) MTB RNAP (Mycobacterium tuberculosis, UniProt P9WGY9, S456L). The settings on record: read-out: RNAP IC50 MTB S450L.
Where [4] appears, read: […], ≥99% reduction in luminescence, read-out: MBC99 Day 7 (Lux Assay) MBC.
Where [5] appears, read: Mycobacterium tuberculosis, H37RV.
The mark [6] stands for this setting: Mycobacterium tuberculosis, 168 h, […], ≥99% reduction in luminescence, read-out: MBC99 Day 7 (Lux Assay) MBC.

Data on nine molecules can be found in patent US20250188092A1, “RIFAMYCIN ANALOGS” (THE REGENTS OF THE UNIVERSITY OF MICHIGAN, priority 2021, published 2025).

≈ marks a conversion by molar mass, not a printed value. Like-named read-outs stand apart in the source and are kept apart here.

The term IC50 denotes the concentration that gives 50% inhibition.

Regarding `CO[C@H]1/C=C/O[C@@]2(C)Oc3c(C)c(O)c4c(=O)c(c5oc6cc(N7CCC(CC(=O)O)CC7)cc(OCc7ccc(CN8CCOCC8)cc7)c6nc-5c4c3C2=O)NC(=O)/C(C)=C\C=C\[C@H](C)[C@H](O)[C@@H](C)[C@@H](O)[C@@H](C)[C@H](OC(C)=O)[C@@H]1C` [Compound 17l, 2-{1-[(7S,9E,11S,12R,13S,14R,15R,16R,17S,18S,19E,21Z)-13-(acetyloxy)-2,15,17-trihydroxy-11-methoxy-3,7,12,14,16,18,22-heptamethyl-32-{[4-(morpholin-4-ylmethyl)phenyl]methoxy}-6,23,37-trioxo-8,27,38-trioxa-24,34-diazahexacyclo-[23.11.1.1^4,7.0^5,36.0^26,35.0^28,33]octatriaconta-1,3,5(36)9,19,21,25,28,30,32,34-undecaen-30-yl]piperidin-4-yl)acetic acid], in assay [1], the “MIC90 LORA Rel to RMP” value is 31, the MIC90 was 0.843 µM (≈ 0.954 µg/mL) and the “MIC90 LORA/MABA” value is reported as 4.5. The MBC in assay [2] (setting [4]) is >0.1 µM. Besides, in assay [3], the IC50 amounted to 22 µM.

Consider `CO[C@H]1/C=C/O[C@@]2(C)Oc3c(C)c(O)c4c(=O)c(c5oc6cc(N7CCN(C(=O)c8cccc(-c9ccccn9)c8)CC7)cc(OCc7ccc(CN8CCOCC8)cc7)c6nc-5c4c3C2=O)NC(=O)/C(C)=C\C=C\[C@H](C)[C@H](O)[C@@H](C)[C@@H](O)[C@@H](C)[C@H](OC(C)=O)[C@@H]1C` [Compound 17r, (7S,9E,11S,12R,13S,14R,15R,16R,17S,18S,19E,21Z)-2,15,17-trihydroxy-11-methoxy-3,7,12,14,16,18,22-heptamethyl-32-{[4-(morpholin-4-ylmethyl)phenyl]methoxy}-6,23,37-trioxo-30-(4-{[3-(pyridin-2-yl)phenyl]carbonyl}piperazin-1-yl)-8,27,38-trioxa-24,34-diazahexacyclo[23.11.1.1^4,7.0^5,36.0^26,35.0^28,33]octatriaconta-1,3,5(36)9,19,21,25,28,30,32,34-undecaen-13-yl acetate], for which, in assay [1], the “MIC90 LORA Rel to RMP” value was found to be 2.60, the MIC90 came out at 0.13 µM and the “MIC90 LORA/MABA” value amounted to 5.7. In addition, the “MBC99 Day 7 (Lux Assay) MBC Rel to RMP” value in assay [2] is reported as 0.46. In addition, in assay [2] (setting [4]), the MBC was 0.205 µM. In addition, in assay [3], the IC50 came to 77 µM.

With `CO[C@H]1/C=C/O[C@@]2(C)Oc3c(C)c(O)c4c(=O)c(c5oc6cc(N7CCC(CC(=O)O)CC7)cc(N7CCC(CC(=O)O)CC7)c6nc-5c4c3C2=O)NC(=O)/C(C)=C\C=C\[C@H](C)[C@H](O)[C@@H](C)[C@@H](O)[C@@H](C)[C@H](OC(C)=O)[C@@H]1C` [Compound 17v, 2-{1-[(7S,9E,11S,12R,13S,14R,15R,16R,17S,18S,19E,21Z)-13-(acetyloxy)-32-[4-(carboxymethyl)piperidin-1-yl]-2,15,17-trihydroxy-11-methoxy-3,7,12,14,16,18,22-heptamethyl-6,23,37-trioxo-8,27,38-trioxa-24,34-diazahexacyclo-[23.11.1.1^4,7.0^5,36.0^26,35.0^28,33]octatriaconta-1,3,5(36)9,19,21,25,28,30,32,34-undecaen-30-yl]piperidin-4-yl)acetic acid], in assay [2] (setting [4]), the MBC is >0.1 µM. Further, the IC50 in assay [3] came out at 66 µM.

As for `CO[C@H]1/C=C/O[C@@]2(C)Oc3c(C)c(O)c4c(=O)c(c5oc6cc(N7CCN(CC(=O)O)CC7)cc(C)c6nc-5c4c3C2=O)NC(=O)/C(C)=C\C=C\[C@H](C)[C@H](O)[C@@H](C)[C@@H](O)[C@@H](C)[C@H](OC(C)=O)[C@@H]1C` [Compound 29h, 2-{4-[(7S,9E,11S,12R,13S,14R,15R,16R,17S,18S,19E,21Z)-13-(acetyloxy)-2,15,17-trihydroxy-11-methoxy-3,7,12,14,16,18,22,32-octamethyl-6,23,37-trioxo-8,27,38-trioxa-24,34-diazahexacyclo[23.11.1.1^4,7.0^5,36.0^26,35.0^28,33]octatriaconta-1,3,5(36)9,19,21,25,28,30,32,34-undecaen-30-yl]piperazin-1-yl}acetic acid], in assay [1], the “MIC90 LORA Rel to RMP” value turned out to be 5.0 and the “MIC90 LORA/MABA” value was 7.2. For the same molecule, the MIC90 in assay [1] (setting [5]) came to 0.133 µM (≈ 0.125 µg/mL). For the same molecule, the MBC in assay [2] (setting [6]) is > 0.1 µM.

`CO[C@H]1/C=C/O[C@@]2(C)Oc3c(C)c(O)c4c(=O)c(c5oc6cc(C)cc(N7CCN(CCn8ccnc8)CC7)c6nc-5c4c3C2=O)NC(=O)/C(C)=C\C=C\[C@H](C)[C@H](O)[C@@H](C)[C@@H](O)[C@@H](C)[C@H](OC(C)=O)[C@@H]1C` [Compound 30e, (7S,9E,11S,12R,13S,14R,15R,16R,17S,18S,19E,21Z)-2,15,17-Trihydroxy-32-{4-[3-(1H-imidazol-1-yl)ethyl]piperazin-1-yl}-11-methoxy-3,7,12,14,16,18,22,30-octamethyl-6,23,37-trioxo-8,27,38-trioxa-24,34-diazahexacyclo[23.11.1.1^4,7.0^5,36.0^26,35.0^28,33]octatriaconta-1(36)2,4,9,19,21,25,28,30,32,34-undecaen-13-yl acetate]: in assay [1], the “MIC90 LORA Rel to RMP” value was found to be 0.87 and the “MIC90 LORA/MABA” value is 2.1. Also, in assay [1] (setting [5]), the MIC90 was 0.18 µM. Besides, the “MBC99 Day 7 (Lux Assay) MBC Rel to RMP” value in assay [2] is 1.06. In assay [2] (setting [6]), the MBC is 0.49 µM.

`CO[C@H]1/C=C/O[C@@]2(C)Oc3c(C)c(O)c4c(=O)c(c5oc6cc(C)cc(N7CCN(C(=O)c8cccc(-n9ccnc9)c8)CC7)c6nc-5c4c3C2=O)NC(=O)/C(C)=C\C=C\[C@H](C)[C@H](O)[C@@H](C)[C@@H](O)[C@@H](C)[C@H](OC(C)=O)[C@@H]1C` [Compound 30f, (7S,9E,11S,12R,13S,14R,15R,16R,17S,18S,19E,21Z)-2,15,17-Trihydroxy-32-{4-[3-(1H-imidazol-1-yl)benzoyl]piperazin-1-yl}-11-methoxy-3,7,12,14,16,18,22,30-octamethyl-6,23,37-trioxo-8,27,38-trioxa-24,34-diazahexacyclo[23.11.1.1^4,7.0^5,36.0^26,35.0^28,33]octatriaconta-1(36)2,4,9,19,21,25,28,30,32,34-undecaen-13-yl acetate]: in assay [1], the “MIC90 LORA Rel to RMP” value was found to be 0.57 and the “MIC90 LORA/MABA” value is on record as 2.7. Further, the MIC90 in assay [1] (setting [5]) worked out at 0.117 µM. The “MBC99 Day 7 (Lux Assay) MBC Rel to RMP” value in assay [2] is on record as 0.24. Moreover, in assay [2] (setting [6]), the MBC turned out to be 0.11 µM.

Consider `CO[C@H]1/C=C/O[C@@]2(C)Oc3c(C)c(O)c4c(c3C2=O)C2=NC3(CCN(CC(C)C)CC3)NC2=C(NC(=O)/C(C)=C\C=C\[C@H](C)[C@H](O)[C@@H](C)[C@@H](O)[C@@H](C)[C@H](OC(C)=O)[C@@H]1C)C4=O` [RFB, rifabutin, reference compound], for which, in assay [1], the “MIC90 LORA Rel to RMP” value was 0.01 and the “MIC90 LORA/MABA” value worked out at 0.94. In addition, in assay [1] (setting [5]), the MIC90 stood at 0.0023 µM (≈ 0.00195 µg/mL). Besides, the “MBC99 Day 7 (Lux Assay) MBC Rel to RMP” value in assay [2] was found to be 0.02. Also, the MBC in assay [2] (setting [6]) is 0.01 µM (≈ 0.00847 µg/mL).

`CO[C@H]1/C=C/O[C@@]2(C)Oc3c(C)c(O)c4c(=O)c(c5oc6cc(N7CCN(CC(C)C)CC7)cc(O)c6nc-5c4c3C2=O)NC(=O)/C(C)=C\C=C\[C@H](C)[C@H](O)[C@@H](C)[C@@H](O)[C@@H](C)[C@H](OC(C)=O)[C@@H]1C` [RLZ, rifalazil, reference compound]: in assay [1], the “MIC90 LORA Rel to RMP” value came to 0.01 and the “MIC90 LORA/MABA” value is recorded as 2.0. Further, the MIC90 in assay [1] (setting [5]) stood at 0.0022 µM (≈ 0.00207 µg/mL). The “MBC99 Day 7 (Lux Assay) MBC Rel to RMP” value in assay [2] was determined as 0.07. In addition, the MBC in assay [2] (setting [6]) stood at 0.03 µM (≈ 0.0282 µg/mL).

`CO[C@H]1/C=C/O[C@@]2(C)Oc3c(C)c(O)c4c(O)c(c(/C=N/N5CCN(C)CC5)c(O)c4c3C2=O)NC(=O)/C(C)=C\C=C\[C@H](C)[C@H](O)[C@@H](C)[C@@H](O)[C@@H](C)[C@H](OC(C)=O)[C@@H]1C` [RMP, rifampin, reference compound]: in assay [1] (LORA MIC90 relative to rifampin (RMP = 1)), the “MIC90 LORA Rel to RMP” value is on record as 1. For the same molecule, the MIC90 in assay [1] (setting [5]) was determined as 0.206 µM (≈ 0.17 µg/mL); in assay [2] (Mycobacterium tuberculosis, 168 h, day 7 of time-kill study), 0.03 µM (≈ 0.0247 µg/mL). Further, in assay [1], the “MIC90 LORA/MABA” value amounted to 7.6. For the same molecule, the “MBC99 Day 7 (Lux Assay) MBC Rel to RMP” value in assay [2] is given as 1. Further, the MBC in assay [2] (setting [6]) is 0.463 µM (≈ 0.381 µg/mL); in assay [2] (Mycobacterium tuberculosis, 168 h, day 7 of time-kill study, read-out: MBC99), 0.463 µM (≈ 0.381 µg/mL).
